Broadly, the AC50 is the concentration giving half of the maximal activity seen. What is called IC50 is the midpoint of a concentration-inhibition curve. Usually Ki stands for a dissociation constant, usually derived from enzyme kinetics or from competition with a known ligand. One may read the EC50 as the concentration that produces a half-maximal response. For orientation: CC50 means the concentration giving 50% cytotoxicity.

We go through 4 compounds from ChEMBL document CHEMBL1201862, “PubChem BioAssay data set” (2004).

Calls of active or inactive are those of the source. Bounds are passed on as bounds.

Test [1] is described as follows: MITF Orthogonal Assay: MALME3 CTG Assay Measured in Cell-Based System Using Plate Reader - 2084-04_Inhibitor_Dose_DryPowder_Activity_Set6. The class given is functional. The note with it: MALME-3.
A short description of test [2]: MITF Measured in Cell-Based System Using Plate Reader - 2084-01_Inhibitor_Dose_DryPowder_Activity_Set6. In kind it is functional.
The next test addresses T1, Orexin receptor type 2 (Homo sapiens, UniProt O43614).
T1 sequence (O43614 whole entry): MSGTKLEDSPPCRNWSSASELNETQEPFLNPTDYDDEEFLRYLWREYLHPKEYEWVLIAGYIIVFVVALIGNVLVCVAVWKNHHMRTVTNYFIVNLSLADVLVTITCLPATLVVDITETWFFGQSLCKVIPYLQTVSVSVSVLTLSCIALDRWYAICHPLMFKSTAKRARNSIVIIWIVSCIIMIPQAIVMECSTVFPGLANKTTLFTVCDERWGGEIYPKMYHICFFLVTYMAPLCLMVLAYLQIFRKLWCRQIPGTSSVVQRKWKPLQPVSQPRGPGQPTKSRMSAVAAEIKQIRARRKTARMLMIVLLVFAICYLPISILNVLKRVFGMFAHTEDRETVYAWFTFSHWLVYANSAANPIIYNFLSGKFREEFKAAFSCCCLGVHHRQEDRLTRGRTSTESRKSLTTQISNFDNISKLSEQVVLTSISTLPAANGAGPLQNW
The experiment in a line: Counterscreen assay for antagonists of the orexin 1 receptor (OX1R; HCRTR1): Fluorescence-based cell-based dose response assay for antagonists of the orexin 2 receptor (OX2R; HCRTR2), run by assay provider. The class given is functional.

For test [3], the target named is Testis-specific serine/threonine-protein kinase 1 (Homo sapiens, UniProt Q9BXA7). The class given is functional.
Chain of Testis-specific serine/threonine-protein kinase 1 (Q9BXA7 whole entry): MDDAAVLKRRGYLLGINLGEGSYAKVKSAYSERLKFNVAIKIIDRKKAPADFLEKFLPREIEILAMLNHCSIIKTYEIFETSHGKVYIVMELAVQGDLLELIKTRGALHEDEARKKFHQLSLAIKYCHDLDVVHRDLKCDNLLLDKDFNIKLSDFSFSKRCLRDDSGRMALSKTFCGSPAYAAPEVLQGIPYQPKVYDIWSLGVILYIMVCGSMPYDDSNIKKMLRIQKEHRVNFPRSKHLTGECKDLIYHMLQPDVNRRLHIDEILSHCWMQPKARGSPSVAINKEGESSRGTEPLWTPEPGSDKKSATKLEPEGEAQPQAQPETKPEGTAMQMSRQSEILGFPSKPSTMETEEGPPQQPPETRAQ
For test [4], the target named is Testis-specific serine/threonine-protein kinase 2 (Homo sapiens, UniProt Q96PF2). In kind it is functional.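 Further: part of the Navigating the Kinome panel, target entry STK22B.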
Chain of Testis-specific serine/threonine-protein kinase 2 (Q96PF2 whole entry): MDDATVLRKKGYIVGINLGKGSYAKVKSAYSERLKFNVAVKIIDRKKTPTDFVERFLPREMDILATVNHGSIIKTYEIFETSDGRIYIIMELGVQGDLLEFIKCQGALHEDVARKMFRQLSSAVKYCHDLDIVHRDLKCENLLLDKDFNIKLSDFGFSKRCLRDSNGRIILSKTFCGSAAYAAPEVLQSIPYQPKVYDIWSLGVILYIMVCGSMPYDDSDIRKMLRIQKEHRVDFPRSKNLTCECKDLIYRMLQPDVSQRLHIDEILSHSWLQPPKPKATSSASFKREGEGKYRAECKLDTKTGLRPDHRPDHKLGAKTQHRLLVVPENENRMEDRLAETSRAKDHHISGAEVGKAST
Test [5] has as its target Lymphokine-activated killer T-cell-originated protein kinase (Homo sapiens, UniProt Q96KB5). In kind it is functional.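 Further: value comes from a kinase panel screen in which TOPK was one of the panel members.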
The target of test [6] is Receptor-type tyrosine-protein kinase FLT3 (Homo sapiens, UniProt P36888). The class given is functional.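 Further: FLT3 was tested as one member of a kinome-wide kinase panel.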
Test [7] deals with Mitogen-activated protein kinase kinase kinase kinase 5 (Homo sapiens, UniProt Q9Y4K4). In kind it is functional.
Test [8] deals with Mitogen-activated protein kinase 14 (Homo sapiens, UniProt Q16539). In kind it is functional.
Chain of Mitogen-activated protein kinase 14 (Q16539 whole entry): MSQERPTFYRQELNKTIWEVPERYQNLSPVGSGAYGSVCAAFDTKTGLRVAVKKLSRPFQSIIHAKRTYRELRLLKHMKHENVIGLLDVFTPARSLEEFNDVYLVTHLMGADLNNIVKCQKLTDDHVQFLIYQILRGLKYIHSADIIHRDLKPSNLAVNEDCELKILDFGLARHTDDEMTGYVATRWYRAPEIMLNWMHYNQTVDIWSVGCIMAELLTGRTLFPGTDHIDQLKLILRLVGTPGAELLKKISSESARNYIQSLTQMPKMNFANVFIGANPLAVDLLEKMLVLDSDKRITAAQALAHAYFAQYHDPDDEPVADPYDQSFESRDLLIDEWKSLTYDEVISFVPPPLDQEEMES
In test [9] the target is Protein kinase C delta type (Homo sapiens, UniProt Q05655). In kind it is functional.
In test [10] the target is Serine/threonine-protein kinase pim-1 (Homo sapiens, UniProt P11309). The class given is functional.
The target of test [11] is Non-receptor tyrosine-protein kinase TYK2 (Homo sapiens, UniProt P29597). The class given is functional.
Test [12] has as its target cGMP-dependent protein kinase 1 (Homo sapiens, UniProt Q13976). The class given is functional.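 Further: value from a kinome panel screen with PRKG1 as the panel member.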
The target of test [13] is Proto-oncogene tyrosine-protein kinase Src (Homo sapiens, UniProt P12931). In kind it is functional.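 Further: SRC entry within a kinome-wide kinase profiling panel.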
In test [14] the target is Phosphorylase b kinase gamma catalytic chain, liver/testis isoform (Homo sapiens, UniProt P15735). The class given is functional.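 Further: PHKG2 measured as one member of a kinome-wide kinase panel.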
Test [15] concerns the target Insulin-like growth factor 1 receptor (Homo sapiens, UniProt P08069). The experiment in a line: Navigating the Kinome. Panel member name: IGF1R. The class given is functional.
Test [16] concerns the target Homeodomain-interacting protein kinase 2 (Homo sapiens, UniProt Q9H2X6). In kind it is functional.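 Further: measured within a kinome-wide kinase profiling panel, HIPK2 being one panel member.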
The target in test [17] is cAMP-dependent protein kinase catalytic subunit PRKX (Homo sapiens, UniProt P51817). The class given is functional.
For test [18], the target named is Fibroblast growth factor receptor 1 (Homo sapiens, UniProt P11362). In kind it is functional.
For test [19], the target named is Vascular endothelial growth factor receptor 2 (Homo sapiens, UniProt P35968). In kind it is functional.
Test [20] concerns the target Tyrosine-protein kinase JAK3 (Homo sapiens, UniProt P52333). The class given is functional.
The target of another test is SRSF protein kinase 1 (Homo sapiens, UniProt Q96SB4). In kind it is functional.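 Further: measured as one member of a kinome-wide kinase profiling panel.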
Chain of SRSF protein kinase 1 (Q96SB4 whole entry): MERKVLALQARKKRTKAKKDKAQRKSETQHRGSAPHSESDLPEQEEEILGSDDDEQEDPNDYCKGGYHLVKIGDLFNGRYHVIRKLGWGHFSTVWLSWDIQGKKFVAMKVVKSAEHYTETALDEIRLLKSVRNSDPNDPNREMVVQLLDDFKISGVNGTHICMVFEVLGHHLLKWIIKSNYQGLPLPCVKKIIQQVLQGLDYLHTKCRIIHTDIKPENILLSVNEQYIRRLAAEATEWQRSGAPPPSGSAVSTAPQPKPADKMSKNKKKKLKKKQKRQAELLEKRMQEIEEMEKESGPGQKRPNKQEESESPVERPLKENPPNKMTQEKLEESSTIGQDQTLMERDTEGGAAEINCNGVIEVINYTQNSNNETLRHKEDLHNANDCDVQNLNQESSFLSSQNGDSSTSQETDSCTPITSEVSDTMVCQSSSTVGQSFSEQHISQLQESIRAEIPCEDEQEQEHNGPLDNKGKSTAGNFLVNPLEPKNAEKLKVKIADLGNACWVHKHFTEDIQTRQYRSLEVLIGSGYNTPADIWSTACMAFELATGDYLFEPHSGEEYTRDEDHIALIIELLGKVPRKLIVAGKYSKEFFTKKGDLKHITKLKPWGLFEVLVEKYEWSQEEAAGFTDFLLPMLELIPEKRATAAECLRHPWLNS
For test [21], the target named is Serine/threonine-protein kinase PAK 4 (Homo sapiens, UniProt O96013). In kind it is functional.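 Further: value obtained within a kinome profiling panel in which PAK4 was one of the panel members.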
For test [22], the target named is Serine/threonine-protein kinase Nek4 (Homo sapiens, UniProt P51957). The class given is functional.
Chain of Serine/threonine-protein kinase Nek4 (P51957 whole entry): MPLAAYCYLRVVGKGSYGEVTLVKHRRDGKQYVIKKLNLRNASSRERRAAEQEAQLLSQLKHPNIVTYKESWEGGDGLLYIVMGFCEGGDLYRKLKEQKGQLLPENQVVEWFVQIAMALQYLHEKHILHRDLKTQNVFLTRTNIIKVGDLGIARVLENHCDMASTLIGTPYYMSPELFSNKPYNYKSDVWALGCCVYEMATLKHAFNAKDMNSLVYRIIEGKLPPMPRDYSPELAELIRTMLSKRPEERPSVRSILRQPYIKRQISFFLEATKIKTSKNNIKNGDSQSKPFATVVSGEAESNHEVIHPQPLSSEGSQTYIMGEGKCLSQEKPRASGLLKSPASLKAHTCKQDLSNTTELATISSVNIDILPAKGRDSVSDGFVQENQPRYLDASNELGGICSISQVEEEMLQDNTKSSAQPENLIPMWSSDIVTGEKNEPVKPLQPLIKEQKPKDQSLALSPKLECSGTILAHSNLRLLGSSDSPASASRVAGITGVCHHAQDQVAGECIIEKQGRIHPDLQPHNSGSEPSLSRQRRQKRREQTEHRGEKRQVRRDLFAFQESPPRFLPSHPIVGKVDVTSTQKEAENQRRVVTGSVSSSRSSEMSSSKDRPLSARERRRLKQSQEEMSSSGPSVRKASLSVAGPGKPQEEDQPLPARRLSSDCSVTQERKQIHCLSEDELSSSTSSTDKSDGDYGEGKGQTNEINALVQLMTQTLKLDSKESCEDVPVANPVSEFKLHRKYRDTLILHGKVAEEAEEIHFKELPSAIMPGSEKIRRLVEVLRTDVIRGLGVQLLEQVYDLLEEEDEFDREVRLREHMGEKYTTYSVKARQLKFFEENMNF
The target of test [23] is Calcium/calmodulin-dependent protein kinase type II subunit gamma (Homo sapiens, UniProt Q13555). In kind it is functional.
Test [24] addresses Mitogen-activated protein kinase 12 (Homo sapiens, UniProt P53778). The class given is functional.
Test [25] can be described thus: HPDE-C7 pancreatic duct cell viability loss – fluorescence, HTS (AID 430). The class given is functional, cell-based. Conditions: Homo sapiens.
In another test the target is T2, Streptokinase A (Streptococcus pyogenes serotype M1, UniProt P10520).
T2 sequence (P10520 whole entry): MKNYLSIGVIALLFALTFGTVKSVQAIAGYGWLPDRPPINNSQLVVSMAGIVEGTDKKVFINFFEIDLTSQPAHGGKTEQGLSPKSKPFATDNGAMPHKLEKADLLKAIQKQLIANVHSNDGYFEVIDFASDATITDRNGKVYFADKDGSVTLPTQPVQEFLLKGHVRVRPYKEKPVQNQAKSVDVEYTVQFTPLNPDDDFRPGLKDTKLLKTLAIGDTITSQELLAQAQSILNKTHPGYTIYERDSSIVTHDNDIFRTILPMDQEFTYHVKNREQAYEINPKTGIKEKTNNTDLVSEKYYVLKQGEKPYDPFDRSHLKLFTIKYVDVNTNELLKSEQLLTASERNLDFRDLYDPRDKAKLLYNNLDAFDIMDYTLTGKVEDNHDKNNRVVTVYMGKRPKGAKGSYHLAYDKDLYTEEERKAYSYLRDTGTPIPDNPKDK
The experiment in a line: viability-normalized secreted streptokinase activity reduction – plasminogen activation absorbance, OD405, dose response (AID 1914).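 Further: secreted streptokinase activity via plasminogen activation per viability signal from cell pellet.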 The class given is functional, Streptococcus pyogenes M1 GAS.

The nature of test [26]: Trypanosoma cruzi growth suppression in host cells – NIH3T3 host cells, beta-gal luminescence, confirmation (AID 2044).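 Further: intracellular parasites grown in NIH/3T3 mouse fibroblasts as host cells; luminescent beta-galactosidase reporter signal from transgenic T. cruzi replicating inside host cells; inhibitors lower the luminescence signal.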 The class given is functional, cell-based.
A further test addresses Ephrin type-A receptor 4 (Mus musculus, UniProt Q03137). The experiment in a line: EphA4 ligand-binding antagonists – biochemical, colorimetric, mouse EphA4, primary screen (AID 689). The class given is functional.
The nature of test [27]: viability of HCT116 lacking mutant beta-catenin – cell-based, human colon tumor, dose response (AID 1045).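 Further: HCT116 colon tumor cells with beta catenin knocked out; cells exposed to compound for 60 hours.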 The class given is functional.
Test [28] in a line: viability loss in THP-1 monocytes – THP-1 cells, cytotoxicity control for Vif-APOBEC3G degradation inhibitor project, dose response (AID 1117359). The class given is functional. The note with it: THP-1.

Chain of Insulin-like growth factor 1 receptor (P08069 31-736 limits assumed): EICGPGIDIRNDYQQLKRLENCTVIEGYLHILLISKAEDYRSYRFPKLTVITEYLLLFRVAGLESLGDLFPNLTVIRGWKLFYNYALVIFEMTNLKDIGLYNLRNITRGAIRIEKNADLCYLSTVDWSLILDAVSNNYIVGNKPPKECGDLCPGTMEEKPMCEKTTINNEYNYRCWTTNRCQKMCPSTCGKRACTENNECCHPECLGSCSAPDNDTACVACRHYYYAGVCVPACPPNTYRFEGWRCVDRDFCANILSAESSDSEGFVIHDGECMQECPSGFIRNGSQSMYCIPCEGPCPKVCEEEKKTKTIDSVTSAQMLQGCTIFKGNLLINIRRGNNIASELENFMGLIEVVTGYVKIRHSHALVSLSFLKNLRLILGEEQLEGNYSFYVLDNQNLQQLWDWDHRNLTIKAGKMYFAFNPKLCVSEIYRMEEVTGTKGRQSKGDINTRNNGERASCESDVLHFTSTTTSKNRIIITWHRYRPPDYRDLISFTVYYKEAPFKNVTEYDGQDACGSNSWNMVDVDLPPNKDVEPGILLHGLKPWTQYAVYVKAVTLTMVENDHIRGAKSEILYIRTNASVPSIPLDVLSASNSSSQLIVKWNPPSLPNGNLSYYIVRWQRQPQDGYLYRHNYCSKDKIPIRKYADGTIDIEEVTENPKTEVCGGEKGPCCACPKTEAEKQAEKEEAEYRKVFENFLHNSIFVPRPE
Chain of Insulin-like growth factor 1 receptor (P08069 741-1367 limits assumed): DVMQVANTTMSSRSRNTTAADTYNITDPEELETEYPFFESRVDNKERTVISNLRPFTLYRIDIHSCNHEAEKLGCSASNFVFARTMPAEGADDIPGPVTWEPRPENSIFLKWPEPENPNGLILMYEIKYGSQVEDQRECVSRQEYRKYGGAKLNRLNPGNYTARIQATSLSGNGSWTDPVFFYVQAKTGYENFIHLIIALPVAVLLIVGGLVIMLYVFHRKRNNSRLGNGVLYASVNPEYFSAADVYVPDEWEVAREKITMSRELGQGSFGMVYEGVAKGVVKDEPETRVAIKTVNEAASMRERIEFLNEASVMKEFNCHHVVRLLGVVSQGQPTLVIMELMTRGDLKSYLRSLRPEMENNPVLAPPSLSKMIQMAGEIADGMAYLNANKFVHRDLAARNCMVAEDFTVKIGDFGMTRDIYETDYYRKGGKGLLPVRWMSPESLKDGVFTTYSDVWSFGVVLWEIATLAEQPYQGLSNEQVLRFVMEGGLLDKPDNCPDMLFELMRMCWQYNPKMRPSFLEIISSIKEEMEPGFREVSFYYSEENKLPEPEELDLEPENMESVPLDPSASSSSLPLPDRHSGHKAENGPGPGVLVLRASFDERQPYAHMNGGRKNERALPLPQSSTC
Chain of Tyrosine-protein kinase JAK3 (P52333 whole entry): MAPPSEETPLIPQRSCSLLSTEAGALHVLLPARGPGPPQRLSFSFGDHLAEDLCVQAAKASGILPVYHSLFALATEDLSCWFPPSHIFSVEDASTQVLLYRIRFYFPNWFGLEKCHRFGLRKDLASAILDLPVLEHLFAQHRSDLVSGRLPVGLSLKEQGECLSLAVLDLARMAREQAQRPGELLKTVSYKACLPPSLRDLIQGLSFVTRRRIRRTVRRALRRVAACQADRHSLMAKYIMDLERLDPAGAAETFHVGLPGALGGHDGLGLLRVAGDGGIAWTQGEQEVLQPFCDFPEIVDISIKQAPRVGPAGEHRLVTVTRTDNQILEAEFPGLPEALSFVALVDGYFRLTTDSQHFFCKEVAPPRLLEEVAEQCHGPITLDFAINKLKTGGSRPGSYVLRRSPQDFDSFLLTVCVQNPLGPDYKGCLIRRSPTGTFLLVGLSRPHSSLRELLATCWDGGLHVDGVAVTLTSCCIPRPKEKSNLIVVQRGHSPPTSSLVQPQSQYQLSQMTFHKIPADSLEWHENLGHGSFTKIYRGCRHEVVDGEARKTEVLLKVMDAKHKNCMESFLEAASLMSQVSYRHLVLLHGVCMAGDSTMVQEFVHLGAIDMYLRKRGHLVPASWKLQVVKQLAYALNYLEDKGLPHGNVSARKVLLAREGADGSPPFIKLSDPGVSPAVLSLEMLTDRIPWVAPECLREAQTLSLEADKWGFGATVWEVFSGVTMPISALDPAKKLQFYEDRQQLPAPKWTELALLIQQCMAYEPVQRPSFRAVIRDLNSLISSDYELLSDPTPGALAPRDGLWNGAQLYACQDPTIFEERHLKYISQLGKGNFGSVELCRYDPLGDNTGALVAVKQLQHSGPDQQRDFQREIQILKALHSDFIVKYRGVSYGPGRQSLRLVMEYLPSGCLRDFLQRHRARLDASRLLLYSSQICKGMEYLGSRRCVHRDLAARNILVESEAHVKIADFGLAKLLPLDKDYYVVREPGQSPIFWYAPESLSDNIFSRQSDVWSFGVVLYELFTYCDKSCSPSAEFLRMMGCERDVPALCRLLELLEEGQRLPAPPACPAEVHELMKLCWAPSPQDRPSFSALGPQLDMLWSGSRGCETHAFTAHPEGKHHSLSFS

Take `C=CCNC1=C(Cl)C(=O)c2ccccc2C1=O`: the concentration at half-maximal activity (AC50) in [1] was 9990 nM (active); in [2], 1560 nM (active).
Regarding `CN(C)c1ccc(-c2nnc(-c3cccs3)o2)cc1`, the IC50 at Orexin receptor type 2 was > 88800 nM (inactive).
`COc1ccc(C(=O)Nc2n[nH]c3ccc(-c4cn(Cc5ccccc5)nn4)cc23)cc1OC`: the Ki is > 1580 nM (inactive) in test [3]; 79.4 nM (active) in test [4]; > 10000 nM (inactive) in test [5]; > 1260 nM (inactive) in [6]; 501 nM (active) in test [7]; > 3980 nM (inactive) in test [8]. The Ki was 3160 nM (active) in [9]; > 5010 nM (inactive) in [10]; 20 nM (active) in test [11]; 631 nM (active) in [12]; 316 nM (active) in test [13]; 316 nM (active) in test [14]. For the same compound, the Ki in [15] is > 2000 nM (inactive); in test [16], 25.1 nM (active); in [17] it was 50.1 nM (active); in [18] it was 501 nM (active); in test [19], 398 nM (active); in [20], 1000 nM (active). Also, the Ki was 1580 nM (active) on SRSF protein kinase 1; 501 nM (active) in [21]; 1000 nM (active) in test [22]; 316 nM (active) in [23]; 631 nM (active) in [24].
As for `CCOC(=O)C(C(=O)OCC)c1cc(Br)c2noc3c2c1C(=O)c1ccccc1-3`, the EC50 was 3030 nM (active) in [25], 11900 nM (active) at Streptokinase A, 510 nM (active) in [26] and 4390 nM (active) in test [27]. Further, the IC50 at Ephrin type-A receptor 4 was 300 nM (active). In test [28], the CC50 was 19200 nM (active).
